Consider 6 molecules from patent US6372297B1, “Wood preservative oxathiazines” (Uniroyal Chemical Company, Inc., priority 1993, dated 2002).

A value given as a limit tells only on which side of the number the result lay.

The subject of test [1] is mixed spore suspension: Aureobasidium pullulans, Aspergillus amstelodami, Ceratocystis pilifera, Cladosporium sp., Penicillium sp., Sclerophomas entoxylina …. Briefly: Control of molds and sapstain fungi in mini-board test. Also noted: key to Surface score of treated mini-boards, 3 week incubation, 1500 ppm / Surface score of treated mini-boards, 3 week incubation, 2500 ppm: 0: Free of fungal growth; 1: Traces of fungal growth; 2: Little fungal growth; 3: Moderate fungal growth; 4: Vigorous to maximum growth (all surfaces covered with fungal growth). The source says:
Representative compounds of this invention to be tested, were suspended in an aqueous solution containing 7.5% GENAPOL X 080™ (Hoechst-Celanese Corporation), and 20% propylene glycol monomethyl ether, to prepare the test solutions. […]
Deep frozen boards (300×50×10 mm) of freshly felled sapwood of Pinus sylvestrus (mini-boards) were thawed at room temperature. One half of each mini-board was immersed in a test solution for 20 seconds. The mini-boards were then sprayed with mixed spore suspension containing the following fungi:
Sclerophomas entoxylina, and
and stored in incubation boxes at 25° C. and at 100% relative humidity, for three weeks. For each compound tested, each concentration of test solution was applied to five different mini-boards.
The efficacy of the test compounds was determined by comparing the fungal growth on both the treated and untreated parts of the mini-boards.
The degree of infection was scored according to the following scale:
1=Traces of fungal growth
4=Vigorous to maximum growth (all surfaces covered with fungal growth)

Test [2] has as its system blue-stain fungi and molds. In words: Activity against blue-stain fungi and molds in a stick test (threshold concentrations). As to conditions: beech sticks, 22° C., 90% relative humidity; for Threshold concentration (ppm), A. niger, score 0 / Threshold concentration (ppm), Aureobasidium, score 0 / Threshold concentration (ppm), Sclerophoma, score 0 / Threshold concentration (ppm), Trichoderma, score 0: minimum concentration to obtain score 0; for Threshold concentration (ppm), A. niger, score 1-2 / Threshold concentration (ppm), Aureobasidium, score 1-2 / Threshold concentration (ppm), Sclerophoma, score 1-2 / Threshold concentration (ppm), Trichoderma, score 1-2: minimum concentration to obtain score 1-2. The protocol:
Representative compounds of this invention were dissolved in 50% ethanol. Each compound was then diluted serially using 50% ethanol. […] After three (3) hours, the solutions containing the test compounds were poured off and the treated sticks were allowed to dry in a sterile laminar air flow. Each treated stick was then placed in a Petri dish which had been previously seeded with inoculum. Two drops of a test fungal or spore suspension were pipetted onto the upper surface of each treated stick. The Petri dishes containing the treated sticks were incubated at 22° C. and 90% relative humidity. The treated sticks were evaluated after there was sufficient growth of fungus on control sticks (i.e., untreated sticks) incubated in the same manner. The following score system was used: 0: Stick free of fungal/mold growth 1: Traces of fungal growth on the stick 2: Slight growth (5 to 25% of the surface covered with fungal growth) 3: Moderate growth (25 to 50% covered with fungal growth) 4. Vigorous to maximum fungal growth (more than 50% growth) […]

Test [3] concerns molds and blue-stain fungi. In words: In vitro activity against molds and blue-stain fungi, poison plate assay (MIC). The class given is cell-based. As to conditions: malt extract agar, complete inhibition. How it is done: The effect of the representative compounds on the growth of certain molds and blue-strain fungi were determined using a poison plate assay according to the following procedure: The solutions of the representative compounds prepared above were further diluted with sterile water to desired concentrations and poured into Petri dishes. Malt extract agar medium was then added aseptically to the Petri dishes and to Petri dishes containing no compound (controls). The Petri dishes were then shaken to provide a uniform distribution of the agar medium. Each Petri dish containing compound and each control Petri dish, was then inoculated with a fungus and incubated for a period of time sufficient to permit complete growth of the fungus in the respective control Petri dish. The Petri dishes containing compound were then examined to determine the amount of inhibition of fungi for each concentration of compound tested.

As to `Cc1ccc(C2=NOCCS2(=O)=O)s1` [Compound 49], in test [1], the “Surface score of treated mini-boards, 3 week incubation, 1500 ppm” value (“Surface score … 3 week incubation, 1500 ppm” for short) is recorded as 0; the “Surface score of treated mini-boards, 6 week incubation, 1500 ppm” value (“Surface score … 6 week incubation, 1500 ppm” for short) amounted to 1.8; the “Surface score of treated mini-boards, 3 week incubation, 2500 ppm” value (“Surface score … 3 week incubation, 2500 ppm” for short) turned out to be 0; the “Surface score of treated mini-boards, 6 week incubation, 2500 ppm” value (“Surface score … 6 week incubation, 2500 ppm” for short) is reported as 1.2.

As for `Cc1ccc(C2=NOCC[S+]2[O-])s1` (centres unmarked) [Compound 48], in test [1], the “Surface score … 3 week incubation, 1500 ppm” value was 0; the “Surface score … 6 week incubation, 1500 ppm” value came to 1.4; the “Surface score … 3 week incubation, 2500 ppm” value was 0; the “Surface score … 6 week incubation, 2500 ppm” value was 0.8.

For the molecule `O=S1(=O)CCON=C1c1ccsc1` [Compound 78], in test [1], the “Surface score … 3 week incubation, 1500 ppm” value came out at 0.2; the “Surface score … 6 week incubation, 1500 ppm” value was found to be 1.2; the “Surface score … 3 week incubation, 2500 ppm” value came to 0.2; the “Surface score … 6 week incubation, 2500 ppm” value worked out at 1.8.

In the case of `[O-][S+]1CCON=C1c1ccsc1` (centres unmarked) [Compound 79], in test [1], the “Surface score … 3 week incubation, 1500 ppm” value is recorded as 1.0; the “Surface score … 6 week incubation, 1500 ppm” value worked out at 3.0; the “Surface score … 3 week incubation, 2500 ppm” value was 0; the “Surface score … 6 week incubation, 2500 ppm” value amounted to 1.8.

For the molecule `[O-][S+]1CCON=C1c1ccc(Cl)s1` (centres unmarked) [Compound 60, 3-(5-Chloro-2-thienyl)-5.6-dihydro-1.4.2-oxathiazine-4-oxide], in test [2], the “Threshold concentration (ppm), A. niger, score 0” value is 500 ppm; the “Threshold concentration (ppm), A. niger, score 1-2” value was under 250 ppm; the “Threshold concentration (ppm), Aureobasidium, score 0” value amounted to 1000 ppm; the “Threshold concentration (ppm), Aureobasidium, score 1-2” value was 100-250 ppm. For the same molecule, in test [2], the “Threshold concentration (ppm), Sclerophoma, score 0” value is listed as 100 ppm; the “Threshold concentration (ppm), Sclerophoma, score 1-2” value is recorded as under 50 ppm; the “Threshold concentration (ppm), Trichoderma, score 0” value is 2500 ppm; the “Threshold concentration (ppm), Trichoderma, score 1-2” value is 500-1000 ppm. In addition, in test [3], the “MIC (ppm) against A. amstelodami” value is reported as 5 ppm, the “MIC (ppm) against A. niger” value is listed as 5 ppm, the “MIC (ppm) against A. pullulans” value is on record as 25 ppm and the “MIC (ppm) against A. versicolor” value turned out to be 2.5 ppm. For the same molecule, in test [3], the “MIC (ppm) against C. cladosporioides” value came to 25 ppm, the “MIC (ppm) against C. pilifera” value was found to be 5 ppm, the “MIC (ppm) against F. solani” value is recorded as 10 ppm and the “MIC (ppm) against G. candidum” value was 25 ppm. In test [3], the “MIC (ppm) against P. purpurogenum” value was 25 ppm, the “MIC (ppm) against P. variotii” value is given as 10 ppm, the “MIC (ppm) against P. violacea” value is 10 ppm and the “MIC (ppm) against S. atra” value is given as 5 ppm. In addition, in test [3], the “MIC (ppm) against S. entoxylina” value came to 5 ppm, the “MIC (ppm) against T. viride” value was found to be 25 ppm and the “MIC (ppm) against U. atrum” value is 10 ppm.

On to `N#Cc1ccc(C2=NOCCS2(=O)=O)s1` [Compound 58], for which, in test [2], the “Threshold concentration (ppm), A. niger, score 0” value stood at 500 ppm; the “Threshold concentration (ppm), A. niger, score 1-2” value was under 250 ppm; the “Threshold concentration (ppm), Aureobasidium, score 0” value is listed as over 1000 ppm; the “Threshold concentration (ppm), Aureobasidium, score 1-2” value is 500-1000 ppm. For the same molecule, in test [2], the “Threshold concentration (ppm), Sclerophoma, score 0” value turned out to be 100 ppm; the “Threshold concentration (ppm), Sclerophoma, score 1-2” value is given as under 50 ppm; the “Threshold concentration (ppm), Trichoderma, score 0” value was found to be 5000 ppm; the “Threshold concentration (ppm), Trichoderma, score 1-2” value was 1000-2500 ppm. For the same molecule, in test [3], the “MIC (ppm) against A. amstelodami” value is 5 ppm, the “MIC (ppm) against A. niger” value was 5 ppm, the “MIC (ppm) against A. pullulans” value is 25 ppm and the “MIC (ppm) against A. versicolor” value is 5 ppm. In test [3], the “MIC (ppm) against C. cladosporioides” value is 10 ppm, the “MIC (ppm) against C. pilifera” value is given as 5 ppm, the “MIC (ppm) against F. solani” value is 10 ppm and the “MIC (ppm) against G. candidum” value is reported as 25 ppm. In test [3], the “MIC (ppm) against P. purpurogenum” value stood at 10 ppm, the “MIC (ppm) against P. variotii” value is reported as 25 ppm, the “MIC (ppm) against P. violacea” value is on record as 25 ppm and the “MIC (ppm) against S. atra” value was 5 ppm. In test [3], the “MIC (ppm) against S. entoxylina” value came to 5 ppm, the “MIC (ppm) against T. viride” value came out at 25 ppm and the “MIC (ppm) against U. atrum” value is given as 10 ppm.
